According to patent publication US12351569B2, “ALDH-2 inhibitor compounds and methods of use” (Amygdala Neurosciences, Inc., priority 2022, dated 2025):
pIC50: −log10 of the molar value.

What was measured:
[1] = molecular target: T1, recombinant human ALDH-2 (Homo sapiens, UniProt P05091); experiment: ALDH-2 inhibition assay; format: biochemical; conditions: 60 min pre-incubation; 10 μM = highest concentration tested; read-out: Enzymatic Assays IC50 ALDH2
T1 sequence (P05091 18-517): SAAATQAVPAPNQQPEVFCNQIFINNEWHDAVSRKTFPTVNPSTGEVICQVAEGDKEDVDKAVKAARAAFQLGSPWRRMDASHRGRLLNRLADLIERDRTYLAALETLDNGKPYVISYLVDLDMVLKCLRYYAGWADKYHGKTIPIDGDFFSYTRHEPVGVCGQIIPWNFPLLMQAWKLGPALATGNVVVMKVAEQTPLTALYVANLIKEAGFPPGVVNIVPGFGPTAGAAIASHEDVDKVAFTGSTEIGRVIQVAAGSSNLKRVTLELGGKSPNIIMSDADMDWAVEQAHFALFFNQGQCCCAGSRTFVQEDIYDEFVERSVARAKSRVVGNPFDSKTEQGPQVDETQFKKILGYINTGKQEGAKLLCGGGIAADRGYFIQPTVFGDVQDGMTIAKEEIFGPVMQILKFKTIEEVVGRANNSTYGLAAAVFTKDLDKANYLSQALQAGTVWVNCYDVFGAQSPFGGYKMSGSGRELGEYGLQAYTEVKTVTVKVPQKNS
Protocol: A. ALDH-2 inhibition assay: The ALDH-2 reaction mixture used in the assay contained 125 μM formaldehyde, 75 μM NAD+, 20 mM NaCl, 10 mM MgCl2, and 20 nM recombinant human ALDH-2 in 50 mM Hepes buffer, pH 7.5 in a final volume of 10 μL using 384-well Corning 3820 plates. After 60 min of pre-incubation of the test ALDH-2 inhibitor compound with ALDH-2, the reaction was started by adding NAD+ and formaldehyde and the assay reaction mixture was allowed to proceed for 60 minutes. Activity of the ALDH-2 enzyme was determined by monitoring NADH formation using Perkin-Elmer Envision Reader with excitation and emission wavelengths set at 340 and 460 nm, respectively.

[2] = molecular target: T2, recombinant human ALDH-1 (Homo sapiens, UniProt P00352); experiment: ALDH-1 inhibition assay; format: biochemical; conditions: 60 min pre-incubation; 10 μM = highest concentration tested; read-out: Enzymatic Assays IC50 ALDH1
T2 sequence (P00352 1-501): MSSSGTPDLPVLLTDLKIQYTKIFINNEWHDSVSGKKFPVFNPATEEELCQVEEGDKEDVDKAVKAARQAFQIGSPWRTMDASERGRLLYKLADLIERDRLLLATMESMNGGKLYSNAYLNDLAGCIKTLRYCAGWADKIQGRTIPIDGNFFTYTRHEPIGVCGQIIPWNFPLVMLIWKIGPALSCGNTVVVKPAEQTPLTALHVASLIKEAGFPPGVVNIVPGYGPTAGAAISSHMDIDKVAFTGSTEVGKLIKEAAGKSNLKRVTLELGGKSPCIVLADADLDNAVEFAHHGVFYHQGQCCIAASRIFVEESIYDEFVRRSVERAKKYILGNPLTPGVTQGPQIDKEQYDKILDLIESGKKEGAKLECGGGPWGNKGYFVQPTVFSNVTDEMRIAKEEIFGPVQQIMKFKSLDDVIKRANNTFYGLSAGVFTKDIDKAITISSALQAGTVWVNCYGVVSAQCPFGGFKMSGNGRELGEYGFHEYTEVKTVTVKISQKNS
Protocol: B. ALDH-1 inhibition assay: The ALDH-1 reaction mixture used in the assay contained 100 μM formaldehyde, 2.5 mM NAD+, 20 mM NaCl, 10 mM MgCl2, 1 mM dithiothreitol (DTT; reducing agent), and 50 nM recombinant human ALDH-1 in 50 mM Hepes buffer, pH 7.5 in a final volume of 10 μL using 384-well Corning 3820 plates. After 60 min of pre-incubation of the test ALDH-2 inhibitor compound with ALDH-1, the reaction was started by adding NAD+ and formaldehyde and the assay reaction mixture was allowed to proceed for 60 minutes. Activity of the ALDH-1 enzyme was determined by monitoring NADH formation using Perkin-Elmer Envision Reader with excitation and emission wavelengths set at 340 and 460 nm, respectively.

[3] = molecular target: T3, MAO-A (Homo sapiens, UniProt P21397); experiment: MAO-A inhibition assay (luminogenic substrate); format: biochemical; conditions: 20 min pre-incubation; 10 μM = highest concentration tested; read-out: Enzymatic Assays IC50 MAO-A
T3 sequence (P21397 1-527): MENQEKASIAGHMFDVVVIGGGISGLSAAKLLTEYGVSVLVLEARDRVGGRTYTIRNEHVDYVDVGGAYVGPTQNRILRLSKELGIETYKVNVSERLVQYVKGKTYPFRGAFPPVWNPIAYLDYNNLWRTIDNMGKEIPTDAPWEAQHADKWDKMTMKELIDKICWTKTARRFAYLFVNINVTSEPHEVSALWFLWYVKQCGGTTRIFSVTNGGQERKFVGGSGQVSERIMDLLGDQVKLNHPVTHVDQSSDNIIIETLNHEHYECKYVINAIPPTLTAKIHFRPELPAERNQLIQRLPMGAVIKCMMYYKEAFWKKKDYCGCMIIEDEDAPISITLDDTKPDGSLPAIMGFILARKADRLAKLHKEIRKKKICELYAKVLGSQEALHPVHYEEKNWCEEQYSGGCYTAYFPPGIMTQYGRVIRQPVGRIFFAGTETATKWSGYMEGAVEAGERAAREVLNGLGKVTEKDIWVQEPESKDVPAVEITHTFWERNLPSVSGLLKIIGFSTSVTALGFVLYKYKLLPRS
Protocol: (§1) D. MAO-A and MAO-B inhibition assays: MAO assays included luminogenic MAO substrate, reaction buffers, Luciferin Detection, and a reconstitution buffer with esterase. The MAO reaction mixture used in the assay included microsome contained MAO-A (2 μg) or MAO-B (10 μg), 160 μM substrate for MAO-A or 16 μM substrate for MAO-B, MAO-A buffer (100 mM Hepes buffer, pH 7.5, 5% glycerol) or MAO-B buffer (100 mM Hepes, pH 7.5, 5% glycerol, 10% dimethyl sulfoxide) in a final volume of 30 μL. After 20 minutes of pre-incubation of the MAO-A or MAO-B enzyme with the test ALDH-2 inhibitor compound, the reaction was initiated by adding enzyme substrate and the […] reaction was allowed to proceed for 60 minutes. Reconstituted Luciferin Detection Reagent (30 μL) was then added is added to simultaneously stop the MAO reaction and convert the methyl ester derivative to luciferin and produce light. The amount of light produced is directly proportional to the activity of MAO. The mixtures were further incubated for 20 minutes and activity of the enzyme was determined using Perkin-Elmer Envision Reader.

[4] = molecular target: T4, MAO-B (Homo sapiens, UniProt P27338); experiment: MAO-B inhibition assay (luminogenic substrate); format: biochemical; conditions: 20 min pre-incubation; 10 μM = highest concentration tested; read-out: Enzymatic Assays IC50 MAO-B
T4 sequence (P27338 1-520): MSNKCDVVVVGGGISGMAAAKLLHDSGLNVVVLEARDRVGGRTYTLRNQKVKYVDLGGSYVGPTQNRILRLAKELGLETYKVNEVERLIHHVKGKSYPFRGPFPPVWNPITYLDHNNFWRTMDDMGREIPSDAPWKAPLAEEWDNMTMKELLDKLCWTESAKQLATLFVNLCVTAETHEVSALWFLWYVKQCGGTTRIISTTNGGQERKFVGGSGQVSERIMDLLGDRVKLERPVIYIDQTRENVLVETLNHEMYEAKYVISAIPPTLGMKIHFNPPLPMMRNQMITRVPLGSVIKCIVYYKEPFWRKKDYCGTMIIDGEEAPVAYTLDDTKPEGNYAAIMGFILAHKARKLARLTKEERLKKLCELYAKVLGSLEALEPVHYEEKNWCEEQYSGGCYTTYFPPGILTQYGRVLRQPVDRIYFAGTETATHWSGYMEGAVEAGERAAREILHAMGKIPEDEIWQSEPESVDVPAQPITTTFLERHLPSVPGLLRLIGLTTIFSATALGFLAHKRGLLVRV
Protocol: as §1

[5] = tested on: HepaRG spheroids; experiment: HepaRG 3D spheroid assay (hepatotoxic liability); format: cell-based; conditions: minimum effective concentration crossing vehicle control threshold of cell health marker; dosed days 1, 4, 7, 10, 13; 100 μM = highest concentration tested
Description: See e.g., Walker et al., “The evolution of strategies to minimise the risk of human drug-induced liver injury (DILI) in drug discovery and development,” (2020) Archives of Toxicology, Vol. 94: 2559-2585, which is hereby incorporated by reference herein in its entirety. […] In applying the HepaRG spheroid assay analysis to determining the hepatoxic liability of ALDH-2 inhibitor compounds, consideration is made of the binding to plasma protein and the limitations to CNS penetration due to the blood-brain barrier.
E. HepaRG® 3D spheroid assay: The HepaRG 3D spheroid assay is described in Walker et al., “The evolution of strategies to minimise the risk of human drug-induced liver injury (DILI) in drug discovery and development,” (2020) Archives of Toxicology, Vol. 94: 2559-2585. Briefly, HepaRG® cells were seeded into ultra-low adhesion 96-well black walled clear bottomed spheroid microplates. […] At the end of the incubation period, the spheroids were loaded with the relevant dye/antibody for each cell health marker (spheroid count, spheroid size, DNA structure, mitochondrial mass, mitochondrial membrane potential, oxidative stress, glutathione content, and cellular ATP). The plates were then scanned using an automated fluorescent cellular imager, ArrayScan® (Thermo Scientific Cellomics).

## Cc1cccc(Cl)c1C(=O)NCc1ccc(N2CCNC(=O)C2)nc1 [(1a), 2-chloro-6-methyl-N-((6-(3-oxopiperazin-1-yl)pyridin-3-yl)methyl)benzamide]
[1]
  pIC50: 7.92
[2]
  pIC50: < 5.00
[3]
  pIC50: < 5.00
[4]
  pIC50: < 5.00
[5]
  HepaRG 3D Spheroid MEC: 54.1 µM

## O=C1CN(c2ccc(CNC(=O)c3ccccc3Cl)cn2)CCN1 [(1b), 2-Chloro-N-((6-(3-oxopiperazin-1-yl)pyridin-3-yl)methyl)benzamide]
[1]
  pIC50: 7.24
[2]
  pIC50: < 5.00
[3]
  pIC50: < 5.00
[4]
  pIC50: < 5.00
[5]
  HepaRG 3D Spheroid MEC: No Effect

## Cc1nccc(Cl)c1C(=O)NCc1ccc(N2CCNC(=O)C2)nc1 [(1c), 4-Chloro-2-methyl-N-((6-(3-oxopiperazin-1-yl)pyridin-3-yl)methyl)nicotinamide]
[1]
  pIC50: 7.46
[2]
  pIC50: < 5.00
[3]
  pIC50: < 5.00
[4]
  pIC50: < 5.00
[5]
  HepaRG 3D Spheroid MEC: No Effect

## O=C1CN(c2ccc(CNC(=O)c3c(Cl)cccc3Cl)cn2)CCN1 [(1d), 2,6-Dichloro-N-((6-(3-oxopiperazin-1-yl)pyridin-3-yl)methyl)benzamide]
[1]
  pIC50: 8.10
[2]
  pIC50: < 5.00
[3]
  pIC50: < 5.00
[4]
  pIC50: < 5.00
[5]
  HepaRG 3D Spheroid MEC: 29.4 µM
